According to paper PMC4623604, “Discovery of Small Molecules that Inhibit the Disordered Protein, p27^Kip1” (Scientific Reports, 2015):

Legend:
[1] = target: T1, p27-KID (Homo sapiens, UniProt P46527); test: NMR fragment screening and 2D 1H-15N HSQC chemical shift perturbation mapping; format: binding; parameters: key to Binding Group (site of chemical shift perturbations in p27-KID): Molecules in Group 1 bound to a localized region, F87YY89; molecules in Group 2 bound to this region as well as two others containing two W residues (W60 and W76); conditions: 100 μM 15N-p27-KID; for chemical shift perturbations in 2D HSQC spectra of p27-KID: titrated to 30-fold molar excess (3 mM)
T1 construct: 6xHis (N, cleaved yes); made in house; host or cells: E. coli (pET28a)
T1 sequence (P46527 22-105): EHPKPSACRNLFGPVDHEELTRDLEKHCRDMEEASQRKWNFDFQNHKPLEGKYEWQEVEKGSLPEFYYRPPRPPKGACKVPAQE
From the text: We used one-dimensional (1D) ^1H WaterLOGSY[35] and STD[36] […] Fragment molecules were selected from either a commercial library (1,100 compounds from the Ro3 collection, Maybridge/Thermo Fisher Scientific) or an in-house library of 1,222 compounds based on the “Rule of Three”[40] and other criteria (see Methods). […] Binding sites for these compounds were identified by titration into ^15N-p27-KID and analysis of two-dimensional (2D) ^1H-^15N HSQC spectra. […] We termed these molecules Groups 1 and 2, respectively (Fig. 1b,c); representative ^1H CSP histograms are shown in Fig. 1d,e, and ^15N CSPs are presented in Suppl. Fig. 2. Data for all other small molecules are shown in Suppl. Fig. 3.
Screening and validation NMR experiments were performed at 298 K (25 °C) using either a Varian Inova 600 MHz spectrometer equipped with a triple resonance (HCN) room temperature gradient probe or a Bruker Avance 600 MHz spectrometer equipped with TCI cryogenic gradient probe and a SampleJet sample changer. Fragment molecules were initially analyzed as pools of five molecules dissolved at 10 mM each in DMSO-D6. […] For initial fragment screening experiments, one-dimensional (1D) ^1H- and WaterLOGSY[35] NMR spectra were recorded for compound pools without and with protein. […] DMSO-D6 was added to maintain a constant concentration (2% vol/vol). […] Tryptophan and tyrosine, respectively, were titrated into ^15N-p27-KID (100 μM) up to 3 mM. Three-dimensional (3D) backbone triple-resonance experiments to establish resonance assignments for the p27 constructs were performed using the Bruker Avance 600 MHz spectrometer. […] Fig. 12b,c and d,e, respectively. 2D ^1H-^15N TROSY-HSQC NMR experiments with ^2H/^13C/^15N-p27-D2/Cdk2/cyclin A and SJ403 have been recorded at 308 K (35 °C). 2D ^1H-^15N HSQC experiments of representative fragment hits (1 mM of SJ319843, group 1 and SJ403, group 2, respectively) with ^15N-p21-KID (20 μM) were recorded at 298 K using a Bruker Avance 600 MHz spectrometer. NMR spectra were processed using Bruker Topspin software and analyzed using computer-aided resonance assignment (CARA) software.
Chemical shift perturbations are generally quantified as combined ^1H and ^15N chemical shift values. […] Thus, the use of a combined chemical shift values would mask the effects of compound binding. […] Thus, the assessment of statistical significance was based upon whether a particular CSP value was larger than, i) the experimental spectral resolution in the given dimension (^1H or ^15N) and ii) the quantity, Δδave + 2σ, for that dimension.

[2] = target: T1, p27-KID; test: NMR 2D 1H-15N in-phase HSQC titration, binding affinity for p27:small molecule interactions; conditions: sixteen-point titration, 100 μM 15N-p27-KID, inhibitor 0-3 mM
Method: 1D and 2D NMR analysis of these molecules led to the identification of 15 additional p27-D2-binding compounds (six with Group 1-like binding features and nine with Group 2-like features; Suppl. Fig. 3b and Suppl. Table 1b).
Sixteen point titrations of representative fragment hits from Group 1 and Group 2 (SJ572710 and SJ572403, respectively) into ^15N-p27-KID (100 μM) were recorded using an adopted “in-phase” 2D ^1H-^15N HISQC with proton decoupling during ^15N chemical shift labeling achieved with a WALTZ16 composite pulse with an amplitude of 7.1 kHz[54][55]. All experiments were collected at a Bruker Avance 800 MHz spectrometer equipped with TCI cryogenic gradient probe. The following molar ratios of ^15N-p27-KID (100 μM) to inhibitor were used: 1:0, 1:0.1, 1:1.5, 1:3, 1:4.5, 1:6, 1:7.5, 1:9, 1:10.5, 1:12, 1:15, 1:18, 1:21, 1:24, 1:27 and 1:30. Each spectrum was recorded with 256 (t1,max = 31.0 ms) and 1024 (t2,max = 106.5 ms) complex points in the ^15N and ^1H dimensions, respectively, with eight transients collected per point. The spectral resolution of the ^1H and ^15N dimensions was 2.4 and 1.7 Hz, respectively. […] The data was processed using the NMRPipe package[56] and analyzed using in-house scripts written in Python using the Scipy computing libraries and Mathematica (Wolfram Research). […]

[3] = target: T2, Cdk2/cyclin A (Homo sapiens, UniProt P24941); test: Fluorescence anisotropy analysis of Cdk2/cyclin A binding to p27-D2-FL; conditions: Alexa Fluor 488 labeled p27-D2
T2 construct: Full length human Cdk2, active Cdk2 (phosphorylated at threonine 160); truncated human cyclin A (residues 173–432); made in house
Method: Figure 4 Fluorescence anisotropy analysis of displacement of p27-D2-FL from Cdk2/cyclin A by SJ403. (a) Fluorescence anisotropy analysis of Cdk2/cyclin A binding to p27-D2-FL. The starting condition (20 nM p27-D2-FL, 300 nM Cdk2/cyclin A) for assessing the effect of fragment hit SJ403 on p27 function is represented as the red circle on the binding isotherm. (b) Titration of SJ403 (0–3 mM) caused the displacement of p27-D2 from Cdk2/cyclin A, resulting in a decrease in fluorescence anisotropy values. Experiments were performed in triplicate and average values and the standard deviations of the means are shown.
The p27-D2-C99S-R93C mutant was conjugated with Alexa Fluor488-C5-Maleimide (Life Technologies, p27-D2-FL) in buffer containing 20 mM Na phosphate, pH7.3, 20 mM NaCl according to the manufacturer’s protocol. The conjugated protein was further purified by reverse-phase high performance liquid chromatography (HPLC) using a C4 column (Vydac) and 0.1% trifluoroacetic acid-containing water/acetonitrile solvent system. […] Fluorescence anisotropy measurements were performed at 25 °C on a Horiba Fluorolog 3 spectrofluorometer. […] All samples have been incubated overnight in the dark at 4 °C prior to fluorescence measurements. Fluorescence anisotropy binding data was analyzed using KaleidaGraph. […]

[4] = target: T2, Cdk2/cyclin A; test: Cdk2/cyclin A kinase activity assay (Histone H1 substrate); format: biochemical
Method: Cdk2/Cyclin A (200 pM) was mixed with Histone H1 (15 μM; EMD Millipore), p27-D2 (200 nM) and varied amounts of lyophilized SJ403 and incubated overnight at 4 °C. The effect of the SJ403 compound on Cdk2 activity was determined by performing similar experiments in the absence of p27-D2. Subsequently, ATP (50 μM total concentration, of which 6 μCi γ ^32P-ATP (PerkinElmer, Inc)) was added to each reaction and further incubated for 35 minutes at 30 °C. […] The sample buffer contained 20 mM HEPES pH 7.3, 25 mM sodium β-glycerolphosphate, 15 mM MgCl2, 16 mM EGTA, 0.5 mM Na3VO4 and 10 mM DTT. The reactions were quenched by addition of SDS-gel loading buffer (5 μL) and then analyzed by SDS-PAGE (10 μL). The gels were dried at 70 °C under vacuum and a phosphoimager (GE Healthcare, Piscataway, NJ) was used to quantify the ^32P-Histone H1 bands. IC50 values were determined by curve fitting using KaleidaGraph software. Experiments were performed in triplicate and mean IC50 and standard deviations of the mean values are reported.

Q: For `N[C@@H](Cc1c[nH]c2ccccc12)C(=O)O` [tryptophan, reference compound], which “chemical shift perturbations in 2D HSQC spectra of p27-KID” value [1] is on record?
A: neither aromatic amino acid cause chemical shift perturbations

Q: What does the source list for `O=c1oc2cc(OCCO)ccc2c2c1CCCC2` [SJ710]?
A: Kd [2]: 4800 ± 1300 µM; Binding Group (site of chemical shift perturbations in p27-KID) ([1]; 2D 1H-15N HSQC): Group 1

Q: For `N[C@@H](Cc1ccc(O)cc1)C(=O)O` [tyrosine, reference compound], which “chemical shift perturbations in 2D HSQC spectra of p27-KID” value [1] is on record?
A: neither aromatic amino acid cause chemical shift perturbations

Q: How did the Kd [3] turn out when “p27-D2: D2 sub-domain of p27, residues 58-105 of human p27 (RKWNFDFQNHKPLEGKYEWQEVEKGSLPEFYYRPPRPPKGACKVPAQE; UniProt P46527 58-105, looked up, fragment)” was run?
A: 0.073 ± 0.008 µM

Q: What about the IC50 ([4]; 200 pM Cdk2/cyclin A, Histone H1 substrate, read-out: IC50, inhibition of Cdk2/cyclin A) of the same compound?
A: 0.152 ± 0.039 µM

Q: And the “Cdk2 kinase activity maintained (of full kinase activity)” value ([4]; 200 nM p27-D2, 200 pM Cdk2/cyclin A, before SJ403)?
A: ~ 13%
